Test results: patent US20210261561A1, “BICYCLIC HETEROCYCLE DERIVATIVES HAVING SELECTIVE BACE1 INHIBITORY ACTIVITY” (SHIONOGI & CO., LTD., priority 2018, published 2021)
pIC50: −log10 of the molar value.

Experiments:
BACE2 = molecular target: T1, BACE2 (Homo sapiens, UniProt Q9Y5Z0); experiment: BACE2 biochemical FRET based assay (Test Example 2-1 (2)); details: 0.4 μg/mL BACE2, 450 minutes, Citrate buffer pH 5.0
T1 sequence (Q9Y5Z0 63-518): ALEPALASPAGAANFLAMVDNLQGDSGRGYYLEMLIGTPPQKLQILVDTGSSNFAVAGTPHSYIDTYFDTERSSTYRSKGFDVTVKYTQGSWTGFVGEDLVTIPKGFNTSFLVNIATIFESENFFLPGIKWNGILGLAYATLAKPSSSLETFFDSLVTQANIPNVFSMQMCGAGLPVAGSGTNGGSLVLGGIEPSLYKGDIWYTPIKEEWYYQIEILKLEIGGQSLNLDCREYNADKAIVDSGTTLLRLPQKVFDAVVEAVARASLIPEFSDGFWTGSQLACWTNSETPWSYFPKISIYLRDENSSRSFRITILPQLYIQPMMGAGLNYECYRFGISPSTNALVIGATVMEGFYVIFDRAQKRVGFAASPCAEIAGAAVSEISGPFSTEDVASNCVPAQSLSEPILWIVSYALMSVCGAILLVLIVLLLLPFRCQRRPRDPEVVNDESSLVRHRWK
Excerpt: This assay is a Fluorescence Resonance Energy Transfer Assay (FRET) based assay. The substrate for this assay contains the ‘Swedish’ Lys-Met/Asn-Leu mutation of the amyloid precursor protein (APP) beta-secretase cleavage site. This substrate also contains two fluorophores: (7-methoxycoumarin-4-yl) acetic acid (Mca) is a fluorescent donor with excitation wavelength at 320 nm and emission at 405 nm and 2,4-dinitrophenol (Dnp) is a proprietary quencher acceptor. […] Upon cleavage by the beta-secretase, the fluorophore Mca is separated from the quenching group Dnp, restoring the full fluorescence yield of the donor. The increase in fluorescence is linearly related to the rate of proteolysis. Briefly in a 384-well format recombinant BACE2 protein in a final concentration of 0.4 μg/mL was incubated for 450 minutes at room temperature with 10 μM substrate in incubation buffer (final concentrations: 33.3 mM Citrate buffer pH 5.0, 0.033% PEG, 2% DMSO) in the absence or presence of compound. Next the amount of proteolysis was directly measured by fluorescence measurement at T=0 and T=450 (excitation at 320 nm and emission at 405 nm). Results were expressed in RFU (Relative Fluorescence Units), as difference between T450 and TO.
A best-fit curve was fitted by a minimum sum of squares method to the plot of % Controlmin versus compound concentration. From this an IC50 value (inhibitory concentration causing 50% inhibition of activity) can be obtained.

CYP3A4 = molecular target: T2, CYP3A4 (Homo sapiens, UniProt P08684); experiment: CYP3A4(MDZ) MBI test (Test Example 4-2); assay type: in vitro ADME; details: pooled human liver microsomes, 10 μmol/L MDZ, pre-reaction 0 or 30 minutes; shifted IC value
T2 construct: from tissue; host or cells: pooled human liver microsomes
Method: CYP3A4(MDZ) MBI test is a test of investigating mechanism based inhibition (MBI) potential on CYP3A4 inhibition of a compound. CYP3A4 inhibition is evaluated using 1-hydroxylation reaction of midazolam (MDZ) by pooled human liver microsomes as a marker reaction.
The reaction conditions were as follows: substrate, 10 μmol/L MDZ; pre-reaction time, 0 or 30 minutes; substrate reaction time, 2 minutes; reaction temperature, 37° C.; protein content of pooled human liver microsomes, 0.5 mg/mL at pre-reaction time, […] (at 10-fold dilution) at reaction time; concentrations of the compound of the present invention, 1, 5, 10, 20 μmol/L (4 points).
Pooled human liver microsomes in a K-Pi buffer (pH 7.4) and a compound of the present invention solution as a pre-reaction solution were added to a 96-well plate at the composition of the pre-reaction. A part of pre-reaction solution was transferred to another 96-well plate, and diluted 10-fold by a substrate in a K-Pi buffer. NADPH as a co-factor was added to initiate the marker reaction (without preincubation). After a predetermined time of the marker reaction, methanol/acetonitrile=1/1 (v/v) solution was added in order to terminate the marker reaction. On the other hand, NADPH was also added to a remaining pre-reaction solution in order to initiate a pre-reaction (with preincubation). After a predetermined time of a pre-reaction, a part was transferred to another 96-well plate, and diluted 10-fold by a substrate in a K-Pi buffer in order to initiate the marker reaction. After a predetermined time of the marker reaction, methanol/acetonitrile=1/1 (v/v) solution is added in order to terminate the marker reaction. After centrifuged at 3000 rpm for 15 minutes, 1-hydroxymidazolam in the supernatant is quantified by LC/MS/MS.
The sample adding DMSO to a reaction system instead of compound of the present invention solution was adopted as a control (100%) because DMSO is used as a solvent to dissolve a compound of the present invention. Remaining activity (%) was calculated at each concentration of the compound of the present invention added as the solution, and IC50 value was calculated by reverse-presumption using a logistic model with a concentration and an inhibition rate. Shifted IC value was calculated as “IC value without preincubation (0 minutes)/IC value with preincubation (30 minutes)”. When a shifted IC value was 1.5 or more, this was defined as positive. When a shifted IC value was less than 1.1, this was defined as negative.

BACE1 = BACE1 (Homo sapiens, UniProt P56817); experiment: BACE1 biochemical FRET based assay (Test Example 2-1); details: for selectivity: BACE2 IC50 over BACE1 IC50 (FRET); for pIC50: FRET, 0.04 μg/mL BACE1, 450 minutes, Citrate buffer pH 5.0
Excerpt: This assay is a Fluorescence Resonance Energy Transfer Assay (FRET) based assay. The substrate for this assay is an APP derived 13 amino acids peptide that contains the ‘Swedish’ Lys-Met/Asn-Leu mutation of the amyloid precursor protein (APP) beta-site secretase cleavage site. This substrate also contains two fluorophores: (7-methoxycoumarin-4-yl) acetic acid (Mca) is a fluorescent donor with excitation wavelength at 320 nm and emission at 405 nm and 2,4-dinitrophenol (Dnp) is a proprietary quencher acceptor. […] Upon cleavage by BACE1, the fluorophore Mca is separated from the quenching group Dnp, restoring the full fluorescence yield of the donor. The increase in fluorescence is linearly related to the rate of proteolysis.
Briefly in a 384-well format recombinant BACE1 protein in a final concentration of 0.04 μg/mL is incubated for 450 minutes at room temperature with […] substrate in incubation buffer (final concentrations: 33.3 mM Citrate buffer pH 5.0, 0.033% PEG, 3% DMSO) in the absence or presence of compound. Next the amount of proteolysis is directly measured by fluorescence measurement at T=0′-120′ and T=450′ (excitation at 320 nm and emission at 405 nm). Results are expressed in RFU (Relative Fluorescence Units), as difference between T450 and Tx (Tx is chosen depending on the reaction speed between 0 and 120 minutes.).
A best-fit curve is fitted by a minimum sum of squares method to the plot of % Controlmin versus compound concentration. From this an IC50 value (inhibitory concentration causing 50% inhibition of activity) can be obtained.

[1] = test system: Abeta 1-37, Abeta 1-38, Abeta 1-40 and Abeta 1-42 in cerebrospinal fluid (CSF); experiment: Pharmacology in the beagle dog, beta-amyloid profile in CSF (Test Example 18-1); assay type: in vivo
Method: Test compounds were tested to evaluate the effect on the beta-amyloid profile in cerebrospinal fluid (CSF) of dogs after a single dose, in combination with pharmacokinetic (PK) follow up and limited safety evaluation.
In the case of compounds shown below, two beagle dogs (1 male, 1 female) were dosed with vehicle (1 mL/kg of an aqueous solution of 20% cyclodextrin) and 4 beagle dogs (2 males and 2 females) were dosed with test compound at the doses indicated in the following Table in an aqueous 20% cyclodextrin solution with a concentration in mg/mL identical to the dose given in mg/kg) on an empty stomach.
CSF was taken in conscious animals directly from the lateral ventricle via a cannula which was screwed in the skull and covered with subcutaneous tissue and skin, before and at 4, 8, 25 and 49 hours after dosing. Eight hours after dosing the animals got access to their regular meal for 30 minutes. Blood was taken for PK follow up (0.5, 1, 2, 4, 8, 25 and 49 hours) and serum samples for biochemistry were taken before and at 8 and 25 h after dosing. The CSF samples were used for measurement of Abeta 1-37, Abeta 1-38, Abeta 1-40 and Abeta 1-42.

[2] = single dose 5 mg/kg, relevant decrease = >20% decrease
[3] = single dose 10 mg/kg, relevant decrease = >20% decrease

Sequence of BACE1 (P56817 46-501): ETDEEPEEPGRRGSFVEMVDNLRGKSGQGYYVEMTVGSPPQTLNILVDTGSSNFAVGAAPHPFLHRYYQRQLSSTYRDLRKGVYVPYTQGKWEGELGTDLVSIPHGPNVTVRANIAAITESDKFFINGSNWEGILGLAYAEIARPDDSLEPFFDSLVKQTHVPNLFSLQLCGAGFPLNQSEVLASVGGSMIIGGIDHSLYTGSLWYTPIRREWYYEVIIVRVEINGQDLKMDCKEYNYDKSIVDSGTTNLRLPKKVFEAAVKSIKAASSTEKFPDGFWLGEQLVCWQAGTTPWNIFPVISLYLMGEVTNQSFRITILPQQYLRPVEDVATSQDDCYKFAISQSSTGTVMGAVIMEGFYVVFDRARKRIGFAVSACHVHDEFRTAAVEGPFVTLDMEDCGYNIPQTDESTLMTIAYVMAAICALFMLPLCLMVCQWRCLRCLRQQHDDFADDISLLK
T2 sequence (P08684 whole entry): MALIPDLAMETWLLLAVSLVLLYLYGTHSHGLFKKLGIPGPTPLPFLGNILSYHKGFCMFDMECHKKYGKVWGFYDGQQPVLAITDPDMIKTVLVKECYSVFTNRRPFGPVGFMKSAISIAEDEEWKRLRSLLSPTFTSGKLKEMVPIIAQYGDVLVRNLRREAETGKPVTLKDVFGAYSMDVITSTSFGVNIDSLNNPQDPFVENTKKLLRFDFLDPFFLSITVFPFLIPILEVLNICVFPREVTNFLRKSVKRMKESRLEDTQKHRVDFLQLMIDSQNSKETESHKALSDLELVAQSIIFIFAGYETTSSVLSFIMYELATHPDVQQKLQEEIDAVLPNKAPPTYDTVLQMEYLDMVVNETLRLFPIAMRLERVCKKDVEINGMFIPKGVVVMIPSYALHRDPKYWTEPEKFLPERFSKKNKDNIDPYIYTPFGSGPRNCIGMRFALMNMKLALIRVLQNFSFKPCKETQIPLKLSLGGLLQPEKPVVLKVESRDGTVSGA

| Compound | pIC50 (BACE2) | MBI MDZ (CYP3A4) | selectivity (BACE1) | pIC50 (BACE1) | % Decrease in Abeta 1-42 at 8 h post dosing compared to own baseline ([1]; single dose 5 mg/kg) | % Decrease in Abeta 1-42 at 25 h post dosing compared to own baseline [1, 2] | % Decrease in Abeta 1-42 at 8 h post dosing compared to own baseline ([1]; single dose 10 mg/kg) | % Decrease in Abeta 1-42 at 25 h post dosing compared to own baseline [1, 3] | % Decrease in Abeta 1-42 at 49 h post dosing compared to own baseline ([1]; single dose 10 mg/kg, 49 h, relevant decrease = >20% decrease) | % Decrease in Abeta 1-42 at 8 h post dosing compared to own baseline ([1]; single dose 0.63 mg/kg) | % Decrease in Abeta 1-42 at 8 h post dosing compared to own baseline ([1]; single dose 2.5 mg/kg) | % Decrease in Abeta 1-42 at 25 h post dosing compared to own baseline ([1]; single dose 2.5 mg/kg, relevant decrease = >20% decrease) |
| --- | --- | --- | --- | --- | --- | --- | --- | --- | --- | --- | --- | --- |
| CN1C(N)=N[C@](C)(c2cc(NC(=O)c3cc4c(cn3)OC(F)(F)CO4)ccc2F)CS1(=O)=O [Compound I-011] | 7.73 | Negative | 15.9 | 8.92 | −54% | −37% | −74% | −77% | −30% | – | – | – |
| CN1C(N)=N[C@](C)(c2cc(NC(=O)c3cc4c(cn3)OC(F)(F)O4)ccc2F)CS1(=O)=O [Compound I-012] | 7.27 | Negative | 18.7 | 8.54 | – | – | – | – | – | – | – | – |
| CC1(C)C(N)=N[C@](C)(c2cc(NC(=O)c3cc4c(cn3)OC(F)(F)CO4)ccc2F)CS1(=O)=O [Compound I-024] | – | Negative | – | – | – | – | – | – | – | −40% | −66% | – |
| [2H]C1([2H])Oc2cnc(C(=O)Nc3ccc(F)c([C@]4(C)CS(=O)(=O)C(C)(C)C(N)=N4)c3)cc2OC1([2H])[2H] [Compound I-026] | – | Negative | – | – | – | – | – | – | – | – | – | – |
| CC1(C)C(N)=N[C@](C)(c2cc(NC(=O)c3cc4c(cn3)OC(F)(F)O4)ccc2F)CS1(=O)=O [Compound I-027] | – | Negative | – | – | – | – | – | – | – | – | – | – |
| NC1=N[C@](CF)(c2cc(NC(=O)c3cc4c(cn3)OC(F)(F)CO4)ccc2F)[C@H]2COCC[C@H]2O1 [Compound I-035] | 6.18 | Negative | 301 | 8.66 | −63% | −27% | −82% | −28% | – | – | −52% | – |
| NC1=N[C@](CF)(c2cc(NC(=O)c3cc4c(cn3)OC(F)(F)O4)ccc2F)[C@H]2COCC[C@H]2O1 [Compound I-036] | 5.66 | Negative | 166 | 7.88 | – | – | – | – | – | – | – | – |
| NC1=N[C@](CF)(c2cc(NC(=O)c3cc4c(cn3)OC(F)(F)CO4)ccc2F)[C@H]2CCOC[C@H]2O1 [Compound I-046] | 5.66 | Negative | 263 | 8.08 | – | – | – | – | – | – | – | – |
| C[C@H]1OC[C@H]2[C@@H]1OC(N)=N[C@]2(CF)c1cc(NC(=O)c2cc3c(cn2)OC(F)(F)CO3)ccc1F [Compound I-049] | 6.31 | Negative | 136 | 8.44 | – | – | – | – | – | – | – | – |
| C[C@@H]1C[C@H]2OC(N)=N[C@](CF)(c3cc(NC(=O)c4cc5c(cn4)OC(F)(F)CO5)ccc3F)[C@H]2CO1 [Compound I-053] | 5.70 | – | 200 | 8.00 | – | – | – | – | – | −31% | −50% | −27% |
